# Results taken from patent US20250011318A1 (ARCUS BIOSCIENCES, INC., priority 2023, published 2025).
# Key:
# Cbl-b = target: T1, Cbl-b (Homo sapiens, UniProt Q13191); assay: Cbl-b probe displacement HTRF binding assay; settings: 0.4 nM biotinylated Cbl-b, 150 nM BODIPY probe
# T1 construct: biotin (biotinylated)
# Method: The affinity with which compounds of the present disclosure bind to Cbl-b was assessed using probe displacement homologous time resolved fluorescence (HTRF) assays. The assays used a BODIPY™ conjugated probe (Example 54 from WO 2020264398) and biotinylated Cbl-b. The assays were performed in assay buffer consisting of 20 mM Hepes, 150 mM NaCl, 0.01% Triton X-100, 0.5 mM TCEP, 0.01% BSA. On the day of the assay, a 20 point, 1:2 master serial dilution of each compound was prepared in DMSO to span a final concentration range of 10 μM to 0 nM. Two hundred nanoliters of diluted compound was added to each well of a 384-well plate. Fifteen microliters of biotinylated—Cbl-b resuspended in assay buffer were added to each well and the plate incubated for 60 minutes at room temperature prior to addition of 5 μL of BODIPY™ probe in assay buffer. Final assay conditions included 0.4 nM of Cbl-b and 150 nM of BODIPY™ probe. After a further 15 minutes of incubation at room temperature, 5 μl of Streptavidin-Terbium cryptate reagent at 5-fold final concentration was added to each well of the 384-well plate. Binding of a probe to Cbl-b results in an increase of HTRF signal. HTRF signal was measured by Envision plate reader, while competition of a compound of the present disclosure with probe results in a decrease of signal. Percentage maximum activity in each test well was calculated based on DMSO (maximum activity, 0% displacement) and no protein control wells (baseline activity, 100% displacement). Binding affinity was determined from a dose response curve fitted using a standard four parameter fit equation. See Table 3 for data for compounds (Cbl-b Binding (IC50)).
# Jurkat cells = assay: IL-2 secretion assay in CD3/CD28-activated Jurkat cells (AlphaLISA); format: cell-based, human; settings: Homo sapiens, CD3/CD28 T Cell Activator, 24 h, IL-2 AlphaLISA
# Method: Certain compounds were also evaluated in an IL-2 secretion assay. On the day of the assay, a 16 point, 1:2 master serial dilution of each compound was prepared in Opti-MEM to span a final concentration range of 10 μM to 300 pM. Assays were setup in CORNING® tissue culture-treated 384-well microplates containing 60 nL of each dilution. Jurkat cells grown in RPMI-1640 supplemented with 10% FBS, 1% Glutamax, and 1% Pen/Strep were collected, resuspended in Opti-MEM. 50,000 cells/well and added to the compound plates. After a short spin (1200 rpm for 1 min), the plates were incubated at 37° C. for 1 hour. The cells were activated by adding 15 μL of IMUNOCULT™ Human CD3/CD28 T Cell Activator (STEMCELL Technologies) diluted in Opti-MEM. After 24 h of incubation at 37° C., aliquots of culture supernatants were transferred to OptiPlate-384 (PerkinElmer) microplates. The level of IL-2 secretion in the supernatants was then determined using the IL-2 (human) AlphaLISA Detection Kit (PerkinElmer) according to the manufacturer's recommendations. The AlphaLISA signal was measured using an EnVision plate reader (PerkinElmer). EC50 values were determined by fitting the data to a standard 4-parameter logistic equation. See Table 3 for data for select compounds (IL-2 Secretion (EC50)).
# T1 sequence (Q13191 whole entry, species assumed): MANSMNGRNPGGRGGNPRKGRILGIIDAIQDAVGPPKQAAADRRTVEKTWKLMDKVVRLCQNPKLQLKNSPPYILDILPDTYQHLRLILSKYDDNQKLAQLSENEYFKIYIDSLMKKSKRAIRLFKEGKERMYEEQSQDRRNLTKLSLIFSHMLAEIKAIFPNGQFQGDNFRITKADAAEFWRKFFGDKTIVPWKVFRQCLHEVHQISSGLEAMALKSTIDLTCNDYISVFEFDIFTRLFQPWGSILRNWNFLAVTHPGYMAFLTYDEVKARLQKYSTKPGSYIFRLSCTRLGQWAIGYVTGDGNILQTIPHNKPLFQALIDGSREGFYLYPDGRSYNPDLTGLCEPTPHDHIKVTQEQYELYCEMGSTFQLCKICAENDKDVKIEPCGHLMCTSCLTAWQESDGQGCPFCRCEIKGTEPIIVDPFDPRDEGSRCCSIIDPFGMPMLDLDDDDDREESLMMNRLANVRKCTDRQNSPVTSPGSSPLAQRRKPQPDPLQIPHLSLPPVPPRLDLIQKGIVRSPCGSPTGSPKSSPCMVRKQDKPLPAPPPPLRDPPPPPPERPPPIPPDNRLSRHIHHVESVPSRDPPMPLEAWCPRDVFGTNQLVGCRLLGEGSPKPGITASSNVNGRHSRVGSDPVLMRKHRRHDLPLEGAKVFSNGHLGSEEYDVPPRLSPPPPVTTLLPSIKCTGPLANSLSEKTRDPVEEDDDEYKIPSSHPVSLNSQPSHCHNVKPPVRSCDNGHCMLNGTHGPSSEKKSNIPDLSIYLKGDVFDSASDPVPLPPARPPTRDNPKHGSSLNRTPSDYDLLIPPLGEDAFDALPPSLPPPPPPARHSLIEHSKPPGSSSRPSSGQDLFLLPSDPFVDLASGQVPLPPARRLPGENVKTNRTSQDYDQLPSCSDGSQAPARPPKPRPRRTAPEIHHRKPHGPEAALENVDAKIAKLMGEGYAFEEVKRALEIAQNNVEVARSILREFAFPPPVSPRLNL
IC50 (Cbl-b),EC50 (Jurkat cells),Structure (SMILES)
< 0.1 µM,< 0.1 µM,"C[C@H]1CCCN(Cc2cc3c(C4CC4)cn(-c4cc(-c5c(-c6nncn6C)cnn5C)cc(Cl)n4)c(=O)c3[nH]2)C1 [Example 25, 2-{[(S)-3-Methyl-1-piperidyl]methyl}-6-{6-chloro-4-[1-methyl-4-(4-methyl-4H-1,2,4-triazol-3-yl)-5-pyrazolyl]-2-pyridyl}-4-cyclopropyl-1,6-dihydro-1,6-diaza-7-indenone]"
< 0.1 µM,< 0.1 µM,"[2H]C([2H])([2H])n1ccnc1-c1cc(C#N)ccc1-c1cc(C2CC2)nc(-n2cc(C3CC3)c3cc(CN4CCC[C@H](C)C4)[nH]c3c2=O)c1 [Example 14, 4-[2-(2-{[(S)-3-methyl-1-piperidyl]methyl}-4-cyclopropyl-7-oxo-1,6-dihydro-1,6-diaza-6-indenyl)-6-cyclopropyl-4-pyridyl]-3-{1-[(^2H3)methyl]-2-imidazolyl}benzonitrile]"
< 0.1 µM,0.1 to 1 µM,"COCCNCc1cc2ncn(-c3cc(-c4ccc(F)cc4-n4nccc4C(F)(F)F)cc(C4CC4)n3)c(=O)c2[nH]1 [Example 104, 3-[6-cyclopropyl-4-[4-fluoro-2-[5-(trifluoromethyl)pyrazol-1-yl]phenyl]pyridin-2-yl]-6-[(2-methoxyethylamino)methyl]-5H-pyrrolo[3,2-d]pyrimidin-4-one]"
< 0.1 µM,,"COCCNCc1cc2ncn(-c3cc(-c4ccc(F)cc4-c4ncoc4C)cc(C4CC4)n3)c(=O)c2[nH]1 [Example 78, 6-{6-cyclopropyl-4-[4-fluoro-2-(5-methyl-1,3-oxazol-4-yl)phenyl]-2-pyridyl}-2-[(2-methoxyethylamino)methyl]-1,6-dihydro-1,4,6-triaza-7-indenone]"
< 0.1 µM,,"C[C@H]1CCCN(Cc2cc3c(C4CC4)cn(-c4cc(-c5ccc(F)cc5-c5nncn5C)cc(C5CC5)n4)c(=O)c3[nH]2)C1 [Example 10, 2-{[(S)-3-Methyl-1-piperidyl]methyl}-4-cyclopropyl-6-{6-cyclopropyl-4-[4-fluoro-2-(4-methyl-4H-1,2,4-triazol-3-yl)phenyl]-2-pyridyl}-1,6-dihydro-1,6-diaza-7-indenone]"
< 0.1 µM,,"CO[C@@H](C)CN(C)Cc1cc2ncn(-c3cc(-c4ccc(F)cc4-c4nc(C#N)cn4C)cc(C4CC4)n3)c(=O)c2[nH]1 [Example 113, 2-[2-[2-cyclopropyl-6-[6-[[[(2S)-2-methoxypropyl]-methylamino]methyl]-4-oxo-5H-pyrrolo[3,2-d]pyrimidin-3-yl]pyridin-4-yl]-5-fluorophenyl]-1-methyl-imidazole-4-carbonitrile]"
< 0.1 µM,,"CO[C@@H](C)CNCc1nc2c(C(F)(F)F)cn(-c3cc(-c4ccc(F)cc4-c4ncoc4C)cc(C4CC4)n3)c(=O)c2[nH]1 [Example 49, 2-{[(S)-2-methoxypropylamino]methyl}-5-{6-cyclopropyl-4-[4-fluoro-2-(5-methyl-1,3-oxazol-4-yl)phenyl]-2-pyridyl}-7-(trifluoromethyl)-3,5-dihydro-1,3,5-triaza-4-indenone]"

# The next lines start with the compound.
Structure (SMILES),IC50 (Cbl-b),EC50 (Jurkat cells)
"C[C@@H](c1nc2c(C(F)(F)F)cn(-c3cc(-c4ccc(F)cc4-c4nncn4C)cc(C4CC4)n3)c(=O)c2[nH]1)C1CC1 [Example 46, 2-[(1R)-1-cyclopropylethyl]-5-[6-cyclopropyl-4-[4-fluoro-2-(4-methyl-1,2,4-triazol-3-yl)phenyl]pyridin-2-yl]-7-(trifluoromethyl)-3H-imidazo[4,5-c]pyridin-4-one]",< 0.1 µM,< 0.1 µM
"COCCN(C)Cc1cc2ncn(-c3cc(-c4ccc(F)cc4-c4nc(C#N)cn4C)cc(C4CC4)n3)c(=O)c2[nH]1 [Example 108, 2-{2-[6-cyclopropyl-2-(2-{[(2-methoxyethyl)-N-methylamino]methyl}-7-oxo-1,6-dihydro-1,4,6-triaza-6-indenyl)-4-pyridyl]-5-fluorophenyl}-1-methyl-4-imidazolecarbonitrile]",< 0.1 µM,< 0.1 µM
"C[C@H]1CCCN(Cc2cc3c(C4CC4)cn(-c4cc(-c5ccc(F)cc5-c5nncn5C)ccn4)c(=O)c3[nH]2)C1 [Example 12, 2-{[(S)-3-Methyl-1-piperidyl]methyl}-4-cyclopropyl-6-{4-[4-fluoro-2-(4-methyl-4H-1,2,4-triazol-3-yl)phenyl]-2-pyridyl}-1,6-dihydro-1,6-diaza-7-indenone]",< 0.1 µM,0.1 to 1 µM
"CC(c1cc2c(S(C)(=O)=O)cn(-c3cc(-c4ccc(C#N)cc4-c4nccn4C)cc(C4CC4)n3)c(=O)c2[nH]1)N1CCO[C@H](C)C1 (mixture of isomers) [Example 102, 4-[2-(2-{1-[(R)-2-methyl-4-morpholinyl]ethyl}-4-mesyl-7-oxo-1,6-dihydro-1,6-diaza-6-indenyl)-6-cyclopropyl-4-pyridyl]-3-(1-methyl-2-imidazolyl)benzonitrile]",< 0.1 µM,< 0.1 µM
"COC[C@H](C)NCc1cc2ncn(-c3cc(-c4ccc(F)cc4-c4ncoc4C)cc(C4CC4)n3)c(=O)c2[nH]1 [Example 79, 2-{[(S)-2-methoxy-1-methylethylamino]methyl}-6-{6-cyclopropyl-4-[4-fluoro-2-(5-methyl-1,3-oxazol-4-yl)phenyl]-2-pyridyl}-1,6-dihydro-1,4,6-triaza-7-indenone]",< 0.1 µM,
"Cn1cc(C#N)nc1-c1cc(F)ccc1-c1cc(C2CC2)nc(-n2cc(C(F)(F)F)c3nc([C@@H]4CCOC4)[nH]c3c2=O)c1 [Example 47, 2-[2-(2-{2-[(S)-Tetrahydro-3-furyl]-4-oxo-7-(trifluoromethyl)-3,5-dihydro-1,3,5-triaza-5-indenyl}-6-cyclopropyl-4-pyridyl)-5-fluorophenyl]-1-methyl-4-imidazolecarbonitrile]",< 0.1 µM,< 0.1 µM
"CCOCCNCc1cc2ncn(-c3cc(-c4ccc(F)cc4-c4ncoc4C)cc(C4CC4)n3)c(=O)c2[nH]1 [Example 80, 6-{6-cyclopropyl-4-[4-fluoro-2-(5-methyl-1,3-oxazol-4-yl)phenyl]-2-pyridyl}-2-[(2-ethoxyethylamino)methyl]-1,6-dihydro-1,4,6-triaza-7-indenone]",< 0.1 µM,
"Cc1c[nH]nc1-c1cc(C#N)ccc1-c1cc(C2CC2)nc(-n2cnc3cc(CN4CCC[C@H](C)C4)[nH]c3c2=O)c1 [Example 22, 4-[2-cyclopropyl-6-[6-[[(3S)-3-methylpiperidin-1-yl]methyl]-4-oxo-5H-pyrrolo[3,2-d]pyrimidin-3-yl]pyridin-4-yl]-3-(4-methyl-1H-pyrazol-3-yl)benzonitrile]",< 0.1 µM,< 0.1 µM
"COCCNCc1cc2ncn(-c3cc(-c4ccc(C#N)cc4-c4ncoc4C)cc(C4CC4)n3)c(=O)c2[nH]1 [Example 72, 4-(6-cyclopropyl-2-{2-[(2-methoxyethylamino)methyl]-7-oxo-1,6-dihydro-1,4,6-triaza-6-indenyl}-4-pyridyl)-3-(5-methyl-1,3-oxazol-4-yl)benzonitrile]",< 0.1 µM,
"C[C@H]1CCCN(Cc2cc3c(C4CC4)cn(-c4cc(-c5ccc(C#N)cc5-c5nccn5C)cc(C5CC5)n4)c(=O)c3[nH]2)C1 [Example 13, 4-[2-(2-{[(S)-3-methyl-1-piperidyl]methyl}-4-cyclopropyl-7-oxo-1,6-dihydro-1,6-diaza-6-indenyl)-6-cyclopropyl-4-pyridyl]-3-(1-methyl-2-imidazolyl)benzonitrile]",< 0.1 µM,
